In patent publication US8653235B2, “Cyclic peptide compound or pharmacologically acceptable salt thereof and method for producing same” (Kwansei Gakuin Educational Foundation, priority 2010, dated 2014):
Ends that are not written are not given here.

Assays:
[1] = tested on: endogenous epimorphin in HaCaT cells; experiment: Reference Example 1: Western blotting of endogenous epimorphin in HaCaT cells; type: cell-based, human; details: 0.01 or 0.025 volume % oleic acid in DH10 medium, 3 days
Procedure: HaCaT cells were cultured in a 5 volume % carbon dioxide atmosphere at 37° C. for 3 days in DH10 medium (Experiment No. 1), in DH10 medium containing 0.01 volume % oleic acid (Experiment No. 2), or in DH10 medium containing 0.025 volume % oleic acid (Experiment No. 3). The cultured cells were isolated and the obtained cells were dissolved in a solubilizing reagent (composition: 2 volume % SDS, 10 volume % glycerol, 5 volume % 2-mercaptoethanol, 0.008 volume % bromophenol blue, and 0.65 M tris-HCl buffer (pH about 6.8)) to obtain a cell extract. Western blotting was performed using the obtained cell extract and an anti-epimorphin antibody (produced by R & D Systems), and the relationship between oleic acid and the level of expression of endogenous epimorphin in HaCaT cells was investigated. The relationship between oleic acid and the level of expression of β-actin in HaCaT cells was also investigated in the same manner as above except that an anti-β-actin antibody was used in place of the anti-epimorphin antibody.

[2] = tested on: secreted epimorphin in PT67-TE cell culture supernatant; experiment: Reference Example 2: secreted epimorphin in PT67-TE cell culture supernatant (Western blotting); type: cell-based; details: 0.01 or 0.025 volume % oleic acid in DH10 medium, 3 days
Procedure: (§1) The HaCaT-TE cells obtained in Production Example 1 or the PT67-TE cells obtained in Production Example 2 were cultured in DH10 medium (Experiment No. 4), in DH10 medium containing 0.01 volume % oleic acid (Experiment No. 5), or in DH10 medium containing 0.025 volume % oleic acid (Experiment No. 6) in a 5 volume % carbon dioxide atmosphere at 37° C. for 3 days. The HaCaT-TE cells obtained in Production Example 1 or the PT67-TE cells obtained in Production Example 2 were irradiated with ultraviolet light B (UVB) at a dose of 10 mJ/cm^2, and then cultured in DH10 medium in a 5 volume % carbon dioxide atmosphere at 37° C. for 3 days (Experiment No. 7). The obtained culture was centrifuged (at 1000×g for 30 minutes) to obtain a culture supernatant. Using an anti-T7 tag antibody (produced by Novagen) and protein G Sepharose beads (produced by GE Healthcare), secreted epimorphin was collected from the obtained culture supernatant. The collected secreted epimorphin was subjected to Western blotting. Using an HRP-labeled anti-T7 tag antibody (produced by Novagen), the relationship between oleic acid and the amount of secreted epimorphin in each of the HaCaT-TE cell culture supernatant and the PT67-TE cell culture supernatant was investigated.

[3] = tested on: secreted epimorphin in HaCaT-TE cell culture supernatant; experiment: Reference Example 2: secreted epimorphin in HaCaT-TE cell culture supernatant (Western blotting); type: cell-based, human; details: 0.01 or 0.025 volume % oleic acid in DH10 medium, 3 days
Procedure: as §1

[4] = tested on: HaCaT cells; experiment: Test Example 2: lumen formation rate in HaCaT cell clusters in collagen gel with oleic acid; type: cell-based, human; details: oleic acid 0.05 volume %, peptide 0.0001 mass %, cultured 4 days
Procedure: In the following experiment, DH10 was used as a medium of Experimental No. 8. […] HaCaT cells were cultured in the DH10 medium at 37° C. in a 5 volume % carbon dioxide atmosphere. Next, the obtained HaCaT cells were suspended in 350 μL of DH10 medium containing 1000 U/mL DNase I (produced by Sigma Aldrich Co.). While rotating the obtained suspended solids in a 24-well dish (produced by Corning Inc., super-low adhesion surface) at 100 min^−1, gyratory culturing was performed for 24 hours at 37° C. in a 5 volume % carbon dioxide atmosphere to form a smooth, round cell aggregate. The formed cell aggregate was embedded in a high-density collagen gel prepared with a 0.5 mass % collagen solution (type IA) (produced by Koken Co., Ltd.). Next, the cell aggregate after embedding was cultured for 4 days in a 5 volume % carbon dioxide atmosphere at 37° C. in the medium of Experimental Nos. 8, 9, 10, or 11 to form a cell cluster. The morphology of the obtained cell cluster was observed by a phase-contrast microscope. In the cell cluster, the outermost layer cells maintain the undifferentiated state because they are in contact with collagen; however, in general, cells that are located inside the undifferentiated cells of the outermost layer promptly start differentiation, and undergo anoikis. […]

[5] = tested on: HaCaT-EPM cells; experiment: Test Example 1: effect on HaCaT-EPM cell growth (WST-1, Cell Counting Kit); type: cell-based, human; design: key to Score (growth recovery of HaCaT-EPM cells): ++: Compared to the case of using the control, significant growth recovery of HaCaT-EPM cells was detected (P≦0.01).; +: Compared to the case of using the control, significant growth recovery of HaCaT-EPM cells was detected (P≦0.05).; −: Significant growth recovery of HaCaT-EPM cells was not detected; details: peptide 0.001 mass % in DH10 medium
Procedure: The cyclic peptide compound obtained in Example 1 was added to purified water to a concentration of […] to obtain a sample. The obtained sample was then added to DH10 medium in such an amount as to achieve a concentration of the cyclic peptide compound obtained in Example 1 of 0.001 mass %. The HaCaT-EPM cells obtained in Production Example 3 were cultured in the obtained medium at 37° C. in a 5 volume % carbon dioxide atmosphere, and the cells were collected over time. After adding 110 μL of a mixture of solution B with reagent A (trade name: “WST-1, ” produced by Dojindo) (the reagent A/Solution B ratio by volume=10/1) provided with a cell counter kit (trade name: “Cell Counting Kit,” produced by Dojindo), the collected cells were incubated for 3 hours. The absorbance of the obtained mixture at 450 nm was measured using a spectrophotometer (trade name: “ARVOtmS X 1420 Multilabel Counter,” produced by Wallac), and the effect of the mixture on the HaCaT-EPM cell growth was investigated. As a control, the above procedure was repeated, except that purified water was used in place of the cyclic peptide compound obtained in Example 1, and the effect on the growth of HaCaT-EPM cells was investigated. […]

[6] = tested on: differentiated cellular architecture containing HaCaT cells; experiment: Test Example 7: tissue morphology of differentiated cellular architecture containing HaCaT cells treated with oleic acid (parakeratosis); type: cell-based, human; details: 5 μL 0.5 volume % oleic acid-containing ethanol solution and 5 μL sample with peptide 0.001 mass %; one day
Procedure: In the following experiment, DH10 medium was used as a medium of Experimental No. 36. 1 μL of purified water was added to 1 mL of DH10 medium to obtain a sample (Experimental No. 37). Further, the cyclic peptide compound obtained in Example 1 was added to DH10 medium to a concentration of 0.001 mass % to obtain a sample (Experimental No. 38). Furthermore, the linear peptide obtained in Comparative Example 1 was added to DH10 medium to a concentration of 0.001 mass %, to obtain a sample (Experimental No. 39). MRC-5 cells, which are human fetal lung fibroblast cells, were cultured in 10 mL of α-MEM (produced by Gibco Laboratories containing 10 mass % heat inactivated FCS at 37° C. in a 5 volume % carbon dioxide atmosphere for 72 hours. A support (produced by BD Bioscience Co., Ltd.; trade name: cell culture insert) was provided in each well of a 24 well culture plate. In the support, the MRC-5 cells and a collagen gel mixed solution (collagen type I, produced by Nitta Gelatin, Inc.) were mixed. The obtained mixture was formed into a gel to obtain a cell-embedded gel (1.7×10^5/mL). 0.05 ml of a 1 mg/mL fibronectin aqueous solution (produced by BD Biosciences was added to the upper surface of the obtained cell-embedded gel, and the cell-embedded gel was allowed to stand for 1 hour at room temperature. […]

[7] = tested on: HaCaT-EPM cells; experiment: Test Example 3: lumen formation rate in HaCaT-EPM cell clusters in collagen gel; type: cell-based, human; details: peptide 0.0001 mass %, cultured 4 days
Procedure: In the following experiment, DH10 medium was used as the medium of Experimental No. 12. 1 μL of purified water was added to 1 mL of DH10 medium to obtain a medium (Experimental No. 13).
Except for using the HaCaT-EPM cells obtained in Production Example 3 in place of the HaCaT cells in Test Example 2, and the medium of Experimental No. 12, 13, 14, or 15 in place of the medium of Experimental No. 8, 9, 10, or 11 in Test Example 2, the same procedure as in Test Example 2 was performed to calculate a lumen formation rate.

`CCCCCCCC/C=C\CCCCCCCC(=O)O` [oleic acid] was tested, and the “level of expression of endogenous epimorphin in HaCaT cells” value [1] was “does not substantially affect”, the “secreted epimorphin in PT67-TE cell culture supernatant” value [2] was “not detected” and the “secreted epimorphin in HaCaT-TE cell culture supernatant” value [3] was “induces secretion of epimorphin”.

For SIEQSCD [Comparative Example 1], the “lumen formation rate in cell clusters” value [4] was “low lumen formation rate”, the “growth of HaCaT-EPM cells” value [5] was “grew poorly” and the “Score (growth recovery of HaCaT-EPM cells)” value ([5]; compared to purified water control, absorbance at 450 nm) was “−”. The “tissue morphology of the cell construct (nucleus; parakeratosis caused by oleic acid)” value [6] was “a nucleus could be observed” and the “lumen formation rate in cell clusters” value [7] was “low lumen formation rate”.
